Measured values reported in patent US8158674B2, “Chalcogenoxanthylium dyes for purging blood pathogens and for photodynamic therapy” (The Research Foundation of State University of New York, priority 2004, dated 2012).
Where “and” joins values, the source holds several entries; their conditions need not be identical. Equal entries are not always repeated. Entries after “also recorded” stand apart in the source; their conditions may differ. Where two headings read alike, the source gives them in different places.

What was measured:
[1] = Quantum yield for generation of singlet oxygen (direct luminescence detection, MeOH); format: physicochemical; details: rose bengal as a standard
[2] = Fluorescence quantum yields and radiative lifetimes; format: physicochemical; details: for Quantum yield for fluorescence φF ± sd: rhodamine 6G as a standard
[3] = tested on: Pgp-expressing CR1R12 cells; assay: Dye uptake into cell monolayers, CR1R12; format: cell-based, Chinese hamster; details: for Effect of verapamil on intracellular dye uptake: dye 1×10−5 M, 7×10−6 M verapamil 2 h before dye
AUXB1 cells [4] = assay: Dye uptake into cell monolayers, AUXB1; format: cell-based, Chinese hamster; details: dye 1×10−5 M for 1 h, 7×10−6 M verapamil
Pgp = Pgp (Homo sapiens, UniProt P08183); details: cited from earlier work
[5] = n-Octanol/water partition coefficient; details: pH-6 phosphate buffer as the aqueous phase
[6] = Reduction potential by cyclic voltammetry; details: in CH2Cl2, 0.2N Bu4NBF4; vs. ferrocene/ferrocinium couple (E° = +0.40 V)
[7] = Absorption and fluorescence maxima in MeOH; details: for Fluorescence maximum λF: excitation at 532 nm; for Bathochromic shift in λmax: compared to TMR-O
CR1R12 cells [8] = assay: Photoradiation of cell cultures (cell viability), CR1R12; details: for Phototoxicity (cell viability): 5.0 J cm−2 light
Protocol: (§1) Cell lines were maintained in passage culture on 60-mm diameter polystyrene dishes (Corning Costar, Corning, N.Y.) in 4.0 mL Minimum Essential Medium (α-MEM) supplemented with 10% fetal bovine serum (FBS), 50 units mL^−1 penicillin G, 50 ug ml^−1 streptomycin and 1.0 ug mL^−1 Fungizone® (complete medium). Only cells from passages 1-10 were used for experiments. A stock of cells, passages 1-4, were maintained at −86° C. to initiate the experimental cultures. Cultures were maintained at 37° C. in a 5% CO2 humidified atmosphere (Forma Scientific, Marietta, Ohio). […] Cell counts were performed using a particle counter (Model ZM, Coulter Electronics, Hialeah, Fla.).
(§2) Photoradiation of Cell Cultures: Cell lines, AUXB1 or CR1R12, were seeded on 96-well plates in 200 μL/well α-MEM at 1-4×10^4 cells/well. Rhodamine analogues were then added directly to the cell culture medium at various concentrations and incubated for 2 h in the dark as above. The medium was then removed and 200 μL α-MEM minus FBS and phenol red (clear medium) were added to each well. One plate, with the lid removed, was then exposed to 350-750 nm light delivered at 1.4 mW cm^−2 for 1 h (5.0 J cm^−2) from a filtered halogen source while a parallel plate was kept in the dark during the irradiation period. Immediately following irradiation the clear medium was replaced with complete medium and the monolayers were incubated for an additional 24-h period. Subsequently, cells were trypsinized and counted using the Coulter counter to determine cell viability. Determination of cell viability by cell counting is performed according to an earlier method. […] Briefly, cells that detach from the surface of a culture plate stain with trypan blue, i.e. are nonviable, while all cells that remain attached to the surface exclude trypan blue, 100% viable. We were unable to seed new culture plates with cells that detached from the surface after treatment, while cells that remained attached after treatment continued to grow and multiply. Thus, we count only those cells that remain attached to the culture plate surface after treatment and compare those numbers with the cell numbers obtained from control cells, cells not exposed to either dye or light. Data are then expressed as percent cell viability, treated cell counts/control cell counts.

extracellular VSV = format: cell-based
intracellular VSV = format: cell-based
Pgp in CR1R12 cells = Pgp in CR1R12 cells (Cricetulus griseus, UniProt P21448); assay: Calcein AM uptake, CR1R12; format: cell-based, Chinese hamster; details: dye 1×10−5 M for 2 h in the dark
AUXB1 cells [9] = assay: Calcein AM uptake, AUXB1; format: cell-based, Chinese hamster; details: higher concentrations of dye plus light exposure
[10] = pH 6
CR1R12 cells [11] = tested on: CR1R12 cells
Protocol: as §1, §2

AUXB1 cells [12] = tested on: AUXB1 cells
Protocol: as §1
Photoradiation of Cell Cultures: Cell lines, AUXB1 or CR1R12, were seeded on 96-well plates in 200 μL/well α-MEM at 1-4×10^4 cells/well. Rhodamine analogues were then added directly to the cell culture medium at various concentrations and incubated for 2 h in the dark as above. The medium was then removed and 200 μL α-MEM minus FBS and phenol red (clear medium) were added to each well. […] Subsequently, cells were trypsinized and counted using the Coulter counter to determine cell viability. […] Data are then expressed as percent cell viability, treated cell counts/control cell counts.

[13] = over a wide range of concentrations

Pgp, sequence (P08183 whole entry): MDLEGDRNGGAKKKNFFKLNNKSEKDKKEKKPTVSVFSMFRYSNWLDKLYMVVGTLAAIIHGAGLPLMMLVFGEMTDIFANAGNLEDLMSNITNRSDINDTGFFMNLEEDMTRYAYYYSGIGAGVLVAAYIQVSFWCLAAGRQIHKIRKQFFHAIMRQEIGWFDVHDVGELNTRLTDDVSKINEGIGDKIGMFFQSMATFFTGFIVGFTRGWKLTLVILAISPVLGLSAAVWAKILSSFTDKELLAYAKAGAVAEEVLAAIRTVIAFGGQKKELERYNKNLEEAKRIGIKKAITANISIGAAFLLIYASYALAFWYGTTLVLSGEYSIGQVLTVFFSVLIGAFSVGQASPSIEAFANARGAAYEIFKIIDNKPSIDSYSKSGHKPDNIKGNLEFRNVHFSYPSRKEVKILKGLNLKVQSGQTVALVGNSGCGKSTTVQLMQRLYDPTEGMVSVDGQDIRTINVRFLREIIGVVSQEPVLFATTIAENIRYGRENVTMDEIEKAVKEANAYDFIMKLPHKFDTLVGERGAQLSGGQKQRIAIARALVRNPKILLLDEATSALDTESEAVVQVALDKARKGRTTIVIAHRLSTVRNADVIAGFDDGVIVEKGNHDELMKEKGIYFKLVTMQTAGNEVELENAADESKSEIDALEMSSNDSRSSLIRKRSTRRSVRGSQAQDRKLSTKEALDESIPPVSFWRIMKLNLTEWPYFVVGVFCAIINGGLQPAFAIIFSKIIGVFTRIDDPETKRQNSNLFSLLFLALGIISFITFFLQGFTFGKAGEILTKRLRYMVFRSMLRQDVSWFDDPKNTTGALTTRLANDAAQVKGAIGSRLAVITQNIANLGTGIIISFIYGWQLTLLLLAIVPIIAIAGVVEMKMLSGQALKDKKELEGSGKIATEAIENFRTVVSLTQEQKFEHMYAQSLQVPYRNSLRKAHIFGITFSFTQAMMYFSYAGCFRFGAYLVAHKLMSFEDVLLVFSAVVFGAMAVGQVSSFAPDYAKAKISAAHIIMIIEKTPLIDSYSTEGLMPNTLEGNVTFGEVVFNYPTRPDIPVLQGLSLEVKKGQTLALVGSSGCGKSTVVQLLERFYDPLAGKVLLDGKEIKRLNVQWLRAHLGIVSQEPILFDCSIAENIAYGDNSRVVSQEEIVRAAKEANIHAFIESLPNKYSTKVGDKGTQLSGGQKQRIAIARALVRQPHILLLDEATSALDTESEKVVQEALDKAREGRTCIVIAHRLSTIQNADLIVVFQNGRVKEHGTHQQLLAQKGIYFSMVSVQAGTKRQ
Pgp in CR1R12 cells, sequence (P21448 whole entry): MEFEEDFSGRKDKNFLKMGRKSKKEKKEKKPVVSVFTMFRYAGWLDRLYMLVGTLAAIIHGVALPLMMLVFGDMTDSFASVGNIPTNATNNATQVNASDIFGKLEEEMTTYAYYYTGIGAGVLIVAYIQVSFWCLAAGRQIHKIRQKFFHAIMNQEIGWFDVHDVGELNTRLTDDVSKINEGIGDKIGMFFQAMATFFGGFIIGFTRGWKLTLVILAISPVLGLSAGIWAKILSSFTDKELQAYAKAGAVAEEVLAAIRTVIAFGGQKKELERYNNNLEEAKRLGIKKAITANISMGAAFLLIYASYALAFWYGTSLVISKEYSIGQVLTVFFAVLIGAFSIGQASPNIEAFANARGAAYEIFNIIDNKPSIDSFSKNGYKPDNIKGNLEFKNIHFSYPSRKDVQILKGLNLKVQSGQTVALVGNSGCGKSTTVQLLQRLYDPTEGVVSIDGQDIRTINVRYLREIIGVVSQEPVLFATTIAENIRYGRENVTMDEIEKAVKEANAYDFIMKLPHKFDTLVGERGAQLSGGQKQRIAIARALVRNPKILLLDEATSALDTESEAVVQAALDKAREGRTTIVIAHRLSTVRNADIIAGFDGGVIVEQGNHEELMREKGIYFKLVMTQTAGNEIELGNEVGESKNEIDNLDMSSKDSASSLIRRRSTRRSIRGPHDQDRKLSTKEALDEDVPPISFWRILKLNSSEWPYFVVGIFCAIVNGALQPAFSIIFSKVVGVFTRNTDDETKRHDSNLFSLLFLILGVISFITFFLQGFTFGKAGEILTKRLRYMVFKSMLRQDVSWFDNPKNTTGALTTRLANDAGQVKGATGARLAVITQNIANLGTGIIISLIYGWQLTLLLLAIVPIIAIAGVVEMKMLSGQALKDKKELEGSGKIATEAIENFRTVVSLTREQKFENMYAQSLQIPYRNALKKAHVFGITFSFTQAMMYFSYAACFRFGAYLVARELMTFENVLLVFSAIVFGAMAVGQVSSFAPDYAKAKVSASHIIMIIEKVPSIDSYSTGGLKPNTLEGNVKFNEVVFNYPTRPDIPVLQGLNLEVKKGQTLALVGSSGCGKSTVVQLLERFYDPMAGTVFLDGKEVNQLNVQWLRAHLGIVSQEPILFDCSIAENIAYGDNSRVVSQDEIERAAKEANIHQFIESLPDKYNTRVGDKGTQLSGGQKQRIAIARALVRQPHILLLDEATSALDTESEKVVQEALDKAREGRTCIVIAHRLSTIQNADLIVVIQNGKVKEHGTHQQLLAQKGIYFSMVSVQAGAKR

| SMILES | Quantum yield for generation of singlet oxygen φ(1O2) ± sd [1] | Radiative lifetime τrad [2] | Quantum yield for fluorescence φF ± sd [2] | Effect of verapamil on intracellular dye uptake [3] | Intracellular dye accumulation in absence vs presence of verapamil (AUXB1 cells [4]) | Inhibition of Pgp function (Pgp) | Pgp transport substrate (Pgp) | Reduction potential E° [6] [V] | Absorption maximum λmax [7] [nm] | log ε at λmax [7] | Fluorescence maximum λF [7] [nm] | Phototoxicity (cell viability) (CR1R12 cells [8]; after 2 h 7×10−6 M verapamil) | Change in intracellular accumulation of CAM (Pgp in CR1R12 cells) | CAM uptake (AUXB1 cells [9]) | n-Octanol/water partition coefficient log P [10] | Cell viability, dye alone in the dark (CR1R12 cells [11]) | Bathochromic shift in λmax [7] [nm] | other results |
| --- | --- | --- | --- | --- | --- | --- | --- | --- | --- | --- | --- | --- | --- | --- | --- | --- | --- | --- |
| CN(C)c1ccc2c(-c3ccccc3)c3ccc(=[N+](C)C)cc-3oc2c1 [TMR-O, Tetramethylrosamine, reference compound] | 0.08 and 0.08 ± 0.01 | 2.1±0.1 ns | 0.84 and 0.84 ± 0.01 | verapamil enhances the uptake; also recorded: significantly enhanced | similar | do not inhibit Pgp function | transport substrates for Pgp | −0.94 | 552 | 4.92 | 575 | no significant phototoxicity |  |  |  |  |  | n-Octanol/water partition coefficient log P [5]: 1.5; Phototoxicity (cell viability) (CR1R12 cells [8]; without verapamil): no significant phototoxicity; Cell viability, dye alone in the dark (CR1R12 cells [8]; same conditions without light): no significant loss in cell viability |
| CN(C)c1ccc2[s+]c3ccc(N(C)C)cc3c(-c3ccccc3)c2c1.[Cl-] [TMR-S, 2,7-Bis-N,N-dimethylamino-9-phenylthioxanthylium Chloride] | 0.21 and 0.21 ± 0.02 | 1.5±0.1 ns | 0.44 and 0.44 ± 0.01 | significantly enhanced | similar |  |  | −0.79 | 571 | 4.70 | 599 | significant cytotoxicity | no significant change | virtually abolished CAM uptake | 1.2 | no significant loss in cell viability | 20 | Inactivation of extracellular VSV (extracellular VSV; 5 μM, 7.4 J cm−2 light, 20% hematocrit red cells): More than 8 log10; Inactivation of intracellular VSV (intracellular VSV; 50 μM and 7.4 J cm−2): 1.5 log10; Increase in dye uptake in the presence of verapamil ([3]; dye 1×10−5 M for 1 h, 7×10−6 M verapamil): more than 3 fold |
| CN(C)c1ccc2sc3ccc(N(C)C)cc3c(=O)c2c1 [compound 2] |  |  |  |  |  |  |  |  |  |  |  |  |  |  |  |  |  | Extracellular virucidal activity (extracellular VSV; [13]): < 2.5 log10; Intracellular virucidal activity (intracellular VSV; [13]): < 0.5 log10 |
| COC(=O)c1ccccc1-c1c2ccc(=N)cc-2oc2cc(N)ccc12 [Rh123, rhodamine 123] |  |  |  |  |  | do not inhibit Pgp function | transport substrates for Pgp |  |  |  |  |  |  |  |  |  |  |  |
| CN(C)c1ccc2[se+]c3ccc(N(C)C)cc3c(-c3ccccc3)c2c1.[Cl-] [TMR-Se, 2,7-Bis-N,N-dimethylamino-9-phenylselenoxanthylium Chloride] | 0.87 and 0.87 ± 0.01 | approximately 50 ps | 0.009 and 0.009 ± 0.001 |  |  |  |  | −0.77 | 582 | 4.84 | 608 | significant cytotoxicity; also recorded: significant phototoxicity | no significant change | virtually abolished CAM uptake | 1.1 | no significant loss in cell viability | 30 | Inactivation of extracellular VSV (extracellular VSV; 1 μM, 2 J cm−2 light, 20% hematocrit red cells): > 7.4 log10; Inactivation of extracellular VSV (extracellular VSV; 5 μM, 2 J cm−2 light, 45% hematocrit red cells): > 7.4 log10; Inactivation of intracellular VSV (intracellular VSV; under the TMR-Se conditions of b117 (1-5 μM, 2 J cm−2)): 0.5 log10; Cell viability, dye alone in the dark (AUXB1 cells [12]): no significant loss in cell viability; Phototoxicity (cell viability) (AUXB1 cells [12]; AUXB1 cells, light, with or without 7×10−6 M verapamil): equally susceptible to phototoxicity |
